From patent US20240199590A1, “SOLID FORMS OF A SGC ACTIVATOR” (Boehringer Ingelheim International GmbH, priority 2022, published 2024) come the findings set out here.

Common to all, as to assay type: physicochemical
Data set [1] can be described thus: Storage stability of samples of Form I at controlled temperature and relative humidity. As for the experimental part: Samples of Form I were maintained for at least 9 months at 25°, and 60% and at least 6 months at 40° and 75% relative humidity.
Data set [2] is described as follows: Solid form stability (tendency to convert to a different solid form, high RH). Here is the method: (§1) Water sorption isotherms are determined using a dynamic vapor sorption system (Advantage 1, DVS, London, UKDVS Intrinsic Plus, Surface Measurement Systems, Allentown, PA).
(§2) Approximately 5-10 mg of solid is weighed into a tared aluminum pan. The samples are subjected to 0 to 90% RH stepwise with a step size of […] at 25° C. Equilibration criteria are dm/dt of 0.002% over 5 minutes or 360 minutes at a specified % RH. Each sample is equilibrated at each RH step for at least 60 min, and equilibrium is assumed if weight increase is less than 0.1% within one minute, and the maximum duration on each RH is 6 hours. Therefore, each sample is held at a given RH for 1 to 6 hours depending on how fast the equilibrium is reached
The amorphous of Compound 1 (10 mg) is added to a pan for Dynamic Vapor Sorption analysis. The solid is exposed stepwise from 40 to 95 to 0 to 95 to 0% RH at 25° C. Form III is isolated after completing the stepwise exposures.

A short description of data set [3]: Hygroscopicity (water sorption, dynamic vapor sorption). The following applies: compared to the anhydrate (Form I) and monohydrate forms (Form III, Form V). Here is the method:
as §1, §2

Setting [4] is: at least 6 months at 40° and 75% relative humidity.
The mark [5] stands for this setting: at least 9 months at 25°, and 60%.

`CCOc1c(C(=O)O)cnn1-c1cccc(-c2cccc(C)c2OCc2ccc3c(c2C)CCN(C2CCOCC2)C3)n1` [Form I]: in data set [1] (setting [4]), the “change in particle sized distribution on storage” value is “no change in particle sized distribution”, the “changes in Raman spectra on storage” value was “no”, the “increase in impurity levels on storage” value is recorded as “no increase in impurity levels” and the “increase in water content on storage” value is listed as “no increase in water content”. In data set [1] (setting [5]), the “change in particle sized distribution on storage” value is reported as “no change in particle sized distribution”, the “changes in Raman spectra on storage” value is “no”, the “increase in impurity levels on storage” value is “no increase in impurity levels” and the “increase in water content on storage” value is “no increase in water content”. In data set [2] (compared to the amorphous form), the “stability as compared to the amorphous form of Compound 1” value was “improved stability”.
On to `CCOc1c(C(=O)O)cnn1-c1cccc(-c2cccc(C)c2OCc2ccc3c(c2C)CCN(C2CCOCC2)C3)n1` [amorphous form of Compound 1], for which the hygroscopicity result in data set [3] is “higher hygroscopicity”. Moreover, the “stability of the solid form under high RH” value in data set [2] (high RH, converting to Form III) is recorded as “not stable”.
